Test results taken from US20130323753A1, “METHODS AND KITS FOR IDENTIFICATION OF ANTI-EXCITOTOXIC COMPOUNDS” (RUTGERS, THE STATE UNIVERSITY OF NEW JERSEY, priority 2007, published 2013).
Entries after “also recorded” stand apart in the source; their conditions may differ.

Key:
spinal cord neurons = assay: Neuron survival (MAP-2+ count) in mixed spinal cord cultures grown in SCM, glutamate toxicity; assay type: cell-based, rat; conditions: for glutamate-elicited neuronal cell death, dose dependence: various concentrations of glutamate
Protocol: Spinal cords were dissected from embryonic day 16 (E16) rat embryos. Meninges were removed, and the cords were dissociated with gentle trituration. Cells were plated at a density of 350 neurons/mm^2.
(§1) When cells were treated with glutamate, the medium was replaced with solutions of glutamate in Locke's buffer, with or without UA, for 1 hour at 37° C. In control cultures, the medium was replaced with Locke's buffer. After 1 hour, glutamate solutions were changed to SCM or NB and UA was added at the same concentration. In all cases, same amount of Locke's buffer was added to control as vehicle. When the cultures were treated with Sin-1, the drug was added directly to the medium with or without UA, and the same amount of PBS and Locke's buffer were added to control as vehicle. In all cases, cells were incubated for another 24 hours at 37° C. before being fixed or harvested.
(§2) Cells were fixed with 4% paraformaldehyde for 30 minutes at room temperature. After washing with PBS, the cultures were incubated with anti-MAP-2 (1:500), anti-GFAP (1:1000), anti-CNPase (1:500), anti-vimentin (1:1000) or anti-CD11 (1:500) for 2 hours at room temperature. Positive cells were then visualized with Cy2 anti-mouse secondary antibodies.
(§3) For each well, pictures were taken for 10 random fields at a magnification of 100×. Cell number (as indicated by the appropriate immunostain) in each of the 10 pictures was counted by an experimenter blind to the condition. Cell numbers in control and treated groups were compared with one-way analysis of variance (ANOVA) using the Instat software program (Graph Pad).
Glutamate is the major physiological agent that mediates cell death after spinal cord injury. To examine the survival of spinal cord neurons in an in vitro model of SCI, mixed cell cultures derived from embryonic 16 (E16) rat spinal cords were treated with a range of concentrations of glutamate. These cells were grown in serum-containing medium (SCM) for 6 days (DIV 6) before being treated with various concentrations of glutamate for 1 hour. The brief exposure to high levels of glutamate mimics its temporary up-regulation after SCI. After glutamate was removed, cells were kept in SCM for another 24 hours before the cultures were fixed and immunostained. The numbers of surviving neurons were monitored with immunohistochemical labeling of MAP-2, a marker for neurons.
To determine whether UA can be used to prevent glutamate toxicity, initial experiments monitored the effects of UA on spinal cord neuron survival during basal conditions. DIV 6 cultures were treated with different concentrations of UA for 24 hours before being fixed and immunostained, and the numbers of neurons were counted. […] The results were derived from 2 independent experiments (n=6).
Further experiments were designed to reveal if UA could reduce neuronal cell death after glutamate exposure. Cells were treated with 500 μM glutamate with or without various concentrations of UA. UA was applied with glutamate and the same concentration of UA was added after the removal of glutamate. […] With high concentrations of UA, glutamate-promoted neuronal cell death was abolished (FIG. 3B). The results were derived from 6 independent experiments (n=12).

[1] = system: pure spinal cord neuron cultures; assay: Neuron survival (MAP-2+ count) in pure spinal cord neuron cultures, glutamate toxicity; assay type: cell-based, rat; conditions: for neuron loss: 1 hour
Protocol: (§4) To grow pure spinal neuron cultures, SCM was changed to Neurobasal medium (NB; Neurobasal medium (Gibco) supplemented with B-27, penicillin, and streptomycin) at 24 hours after plating. After an additional 24 hours, cytosine arabinoside (Ara-C, 5 μM) was added to these cultures for 3 days after which the Ara-C containing media was changed to fresh NB media. Cells were treated 24 hours later.
as §1, §2, §3
To address this question, pure spinal cord neuron cultures were established. Twenty four hours after plating in SCM, SCM was changed to NB medium, which optimizes neuronal growth. Ara-C (5 μM) was added to the cultures after another 24 hours to eliminate the glial populations. The medium was changed after 3 days, and cells were treated 24 hours later. This procedure eliminated non-neuronal cell types in the cultures with only neurons surviving.
To determine the sensitivity of pure neuronal and mixed cultures to glutamate, pure spinal cord neuron cultures were established, and after 6 days, these cells were treated with glutamate for 1 hour. Cells were fixed after 24 hours and stained with anti-MAP-2 antibody. (A) Control cultures and cells treated with 2, 10, and 500 μM glutamate are illustrated. […] Results were derived from 3 independent experiments (n=7). ***p<0.001 by nonparametric ANOVA followed by Dunn's analysis comparing glutamate treated groups with control. Scale bar, 50 μm.
To examine whether UA can directly reduce glutamate toxicity in pure neuronal cultures, cells were treated with or without various concentrations of UA either concurrent with or at the termination of exposure to 10 μM glutamate. More specifically, six days after plating, pure spinal cord neuron cultures were treated with glutamate (10 or 500 μM) for 1 hour. UA (100 or 200 μM) was added with and after glutamate treatments. Cells were fixed after 24 hours and numbers of neurons that survived (MAP-2+) were counted. Results shown in FIG. 6 were derived from 2 independent experiments (n=6). ***p<0.001 by nonparametric ANOVA followed by Dunn's analysis for multiple comparisons comparing treated groups with control.

spinal cord injury = conditions: pre-treatment and concurrent treatment with UA; cited from earlier work
EAAT-2 = assay: Western blot of EAAT-2 protein in mixed spinal cord cultures; assay type: cell-based, rat; conditions: UA 100 μM 24 hours, glutamate, or glutamate and UA
Protocol: (§5) At DIV 7, control and treated mixed spinal cord cultures grown on 35 mm dishes were scraped and protein was harvested in TEEN (25 mM Tris-HCl, pH 7.4, 1 mM EDTA, 1 mM EGTA, 100 mM NaCl) supplemented with 1 mM phenylmethylsulfonyl fluoride (PMSF). Proteins were resolved on 10% SDS-polyacrylamide gels and transferred to PVDF membranes.
(§6) After blocking with 3% bovine serum albumin (BSA), the membrane was incubated with primary antibodies: anti-EAAT-1 (goat polyclonal antibody from Santa Cruz Inc., 1:500) overnight at 4° C.; anti-EAAT-2 (goat polyclonal antibody from Santa Cruz Inc., 1:500) overnight at 4° C.; or anti-actin (mouse monoclonal antibody from Sigma-Aldrich, 1:2000) for 1 hour at room temperature (RT). After washing, the secondary antibody, horseradish peroxidase linked IgG (anti-goat for EAAT-1 and EAAT-2, anti-mouse for actin), was applied at 1:2000 for one hour at RT. The bands were visualized using the enhanced chemiluminescence (ECL) system (Amersham Biosci.).
(§7) The results of the Western blot experiments were analyzed with Universal Hood Gel Documentation Systems and Quantity One V4.2.1 software (BIO-RAD).
(§8) Additional studies examined whether UA affects protein expression of EAAT-1 and EAAT-2. […]

[2] = at normal human levels; cited from earlier work
[3] = system: pure spinal cord neuron cultures; assay: Sin-1 (peroxynitrite donor) toxicity in pure spinal cord neuron cultures; assay type: cell-based, rat; conditions: Sin-1 250 μM 1-hr
Protocol: as §4
THA was dissolved in PBS.
as §1
Results were derived from 2 independent experiments (n=6). ***p<0.001 by parametric ANOVA followed by Bonferroni Multiple Comparisons Test.

[4] = system: spinal cord neurons co-cultured with astroglia; assay: Astroglia re-plated onto pure spinal cord neuron cultures, glutamate toxicity; assay type: cell-based, rat; conditions: glutamate 50 μM 1 hour, then 100 μM UA
Protocol: Spinal cord astroglial cultures were derived from postnatal day 1 rats using a modified approach from MaCarthy and de Vellis (McCarthy and deVellis 1980). Spinal cords were dissected and dissociated with trituration. Cells were plated in tissue culture flasks at density of 1000 cells/mm^2. Cultures were grown in NM-15 medium (84.4% MEM, 15% Fetal Bovine Serum, 0.6% glucose, supplemented with penicillin and streptomycin) for 9 days. Medium was changed every 3 days. The flasks were then shaken at 400×rpm for 20 minutes before the medium was changed and the floating cells (mostly microglia) were washed away. The flasks were again shaken overnight at 250×rpm to remove attached oligodendrocytes and remaining microglia. Following shaking, floating cells were washed away and medium was changed. Ara-C was added to final concentration of 10 μM to reduce the number of undifferentiated cells. Cultures were grown for 3 additional days before being trypsinized and re-plated at a density of 500 cells/mm^2 in SCM. These cultures only contain GFAP+ and vimentin+ astroglia. Staining for MAP-2 and CNPase were negative.
To determine the contribution of direct astroglial cell presence to the neuroprotective effects of UA, astroglial cultures were grown for 5 days in SCM before the cells were trypsinized and plated onto pure spinal cord neuron cultures grown for 5 days in vitro (DIV 5). […]

[5] = system: mouse spinal cord neuron cultures; conditions: mouse spinal cord neuron cultures treated with UA; cited from earlier work
EAAT-1 = assay: Western blot of EAAT-1 protein in mixed spinal cord cultures; assay type: cell-based, rat
Protocol: as §5, §6, §7, §8

SMILES: N[C@@H](CCC(=O)O)C(=O)O [glutamate]
- neurons that did not survive (spinal cord neurons; glutamate 500 μM and 1 mM, 1 hour, mixed cultures, fixed 24 hours later): approximately 40%
- glutamate-elicited neuronal cell death, dose dependence (spinal cord neurons; mixed cultures, 1 hour): increased in a dose-dependent manner
- glutamate-elicited neuronal cell death, dose dependence (spinal cord neurons; mixed cultures, 1 hour, listed as Glutamate): induces loss of spinal cord neurons in a dose-dependent manner
- neuron loss ([1]; glutamate 10 μM): more than 80%
- neuron loss ([1]; glutamate 500 μM): essentially eliminated all neurons; also recorded: almost total neuron elimination
- cell loss, dose dependence ([1]; glutamate 1 hour): dose-dependent cell loss

SMILES: O=c1[nH]c(=O)c2[nH]c(=O)[nH]c2[nH]1 [UA, uric acid]
- cell loss elicited by glutamate at 100 μM UA (spinal cord neurons; 100 μM UA, cultures grown in SCM): reversed the cell loss
- effect on glutamate toxicity, UA added with and after glutamate (spinal cord neurons; 500 μM glutamate 1 hour, various concentrations of UA, mixed cultures): blocked glutamate toxicity in a dose-dependent manner
- glutamate-promoted neuronal cell death at high concentrations of UA (spinal cord neurons; 500 μM glutamate, high concentrations of UA added with and after glutamate, mixed cultures): abolished
- effect on survival of spinal cord neurons during basal conditions (spinal cord neurons; UA different concentrations, 24 hours, DIV 6 mixed cultures, no glutamate): no effect on the survival of spinal cord neurons; also recorded: does not affect survival of spinal cord neurons
- secondary damage (spinal cord injury): reduced secondary damage
- EAAT-2 protein expression normalized to actin (EAAT-2): not altered
- carbon dioxide binding with peroxynitrite, times faster than UA [2]: 920 times
- toxicity elicited by Sin-1, UA added after Sin-1 ([3]; UA 100 μM added after): did not elicit a reversal of toxicity
- toxicity elicited by Sin-1, UA concurrently present ([3]; UA 100 μM concurrent): significantly reversed; also recorded: reduces damages elicited by Sin-1 treatment
- effect of UA itself on neuron survival ([1]; UA 100 or 200 μM): no effect on neuron survival
- protection against glutamate toxicity ([1]; UA 100 or 200 μM with and after glutamate (10 or 500 μM, 1 hour)): did not show any protection against glutamate toxicity; also recorded: did not alter the neuron loss; also recorded: did not protect spinal cord neurons against glutamate toxicity; also recorded: does not decrease glutamate toxicity
- toxic effects of glutamate in astroglia/neuron combined cultures [4]: blocked the toxic effects of glutamate; also recorded: reinstates the effects of UA in reducing glutamate toxicity
- peroxynitrite toxicity [5]: blocked peroxynitrite toxicity
- EAAT-1 protein expression normalized to actin (EAAT-1; UA 100 μM, 24 hours, mixed cultures DIV 6): upregulated
- EAAT-1 protein expression, glutamate prior to UA (EAAT-1; glutamate 500 μM 1 hour, then UA 100 μM): did not influence UA actions in increasing EAAT-1 protein expression
